Experiments:
Type in all cases: cell-based
Conditions in all cases: second agent in combination with Compound I, 7 days; for Synergy region (synergy score): Bliss/HSA excess
VCaP cells = experiment: CTG proliferation assay, in-vitro combination screen, VCaP; design: key to Synergy excess / Additivity score: area between experimental and reference (Bliss/HSA) response surfaces
Description: (§1) Three prostate cancer cell lines LNCAP, VCAP, and 22RV1 were used in this screen. Briefly, LNCaP cells were cultured in RPMI medium supplemented with 10% FBS, 1% penicillin/streptomycin, 10 mM HEPES, 1 mM sodium pyruvate, and 1.5 g/L sodium bicarbonate. […] PC3 cells were cultured in F12K medium supplemented with 10% FBS and 1% penicillin/streptomycin. 22RV1 cells were cultured in RPMI1640 medium supplemented with 10% FBS and 1% penicillin/streptomycin. […] VCaP cells were cultured in DMEM medium supplemented with 10% FBS, 1% penicillin/streptomycin 1 mM sodium pyruvate, 1.5 g/L sodium bicarbonate on high bind treated tissue culture flasks (Corning CellBIND) to increase cell surface attachment. […] The combination plates seeded with cells were then incubated for 7 days at 37° C. and 5% CO2. Cell viability assays were then performed on the plates using Promega CellTiter-Glo (CTG) Luminescent Cell Viability Assay kit and following the manufacturer's protocol. 20 μL of CTG reagent was added to each well of the 384 well plate, and plates were then incubated for 45 minutes before measuring the […] using PerkinElmer EnVision Plate Reader.
(§2) Synergy is calculated by Bliss and HSA excess scores. Bliss and HSA excess scores are computed by subtracting the area under the experimental response surface to the areas under the corresponding reference model surface. A negative HSA excess score indicates antagonism, while a positive HSA excess indicates additivity and synergy is detected when also the Bliss excess score is positive. Replicates are integrated by fitting individual dose response curves. Statistical analysis is performed by first estimating experimental noise and goodness-of-fit values for each individual combination. These values are used to compute Z-scores for the observed effects. Z-scores are integrated across the combination matrix where the deviation from the model is consistent over adjacent doses and a p-value is computed.

LNCaP cells = experiment: CTG proliferation assay, in-vitro combination screen, LNCaP; design: key to Synergy excess: experimental response-surface area minus reference-model area (Bliss/HSA); Maximum synergy: scale not given here
Description: Three prostate cancer cell lines LNCAP, VCAP, and 22RV1 were used in this screen. Briefly, LNCaP cells were cultured in RPMI medium supplemented with 10% FBS, 1% penicillin/streptomycin, 10 mM HEPES, 1 mM sodium pyruvate, and 1.5 g/L sodium bicarbonate. LNCaP cells were seeded at a density of 2000 cells/well on 384 black assay plates printed with our different compound combinations of interest printed on the plates. PC3 cells were cultured in F12K medium supplemented with 10% FBS and 1% penicillin/streptomycin. 22RV1 cells were cultured in RPMI1640 medium supplemented with 10% FBS and 1% penicillin/streptomycin. 22RV1 cells were seeded at a density of 2000 cells/well on 384 black assay plates printed with our different compound combinations of interest printed on the plates. VCaP cells were cultured in DMEM medium supplemented with 10% FBS, 1% penicillin/streptomycin 1 mM sodium pyruvate, 1.5 g/L sodium bicarbonate on high bind treated tissue culture flasks (Corning CellBIND) to increase cell surface attachment. VCaP cells were seeded at a density of 3000 cells/well on high-bind 384 black assay plates printed with our different compound combinations of interest printed on the plates. The combination plates seeded with cells were then incubated for 7 days at 37° C. and 5% CO2. Cell viability assays were then performed on the plates using Promega CellTiter-Glo (CTG) Luminescent Cell Viability Assay kit and following the manufacturer's protocol. 20 μL of CTG reagent was added to each well of the 384 well plate, and plates were then incubated for 45 minutes before measuring the […] using PerkinElmer EnVision Plate Reader.
as §2

22RV1 cells = experiment: CTG proliferation assay, in-vitro combination screen, 22RV1; design: key to Synergy region (synergy score) / Additivity score / Antagonism score: area between experimental and reference (Bliss/HSA) response surfaces
Description: as §1, §2

SMILES | Additivity score (VCaP cells) | Antagonism score (VCaP cells) | Maximum synergy (VCaP cells) | Synergy excess (VCaP cells) | Synergy region (synergy score) (VCaP cells) | Additivity score (LNCaP cells) | Antagonism score (LNCaP cells) | Maximum synergy (LNCaP cells) | Synergy excess (LNCaP cells) | Synergy region (synergy score) (LNCaP cells) | Additivity score (22RV1 cells) | Antagonism score (22RV1 cells) | Maximum synergy (22RV1 cells) | Synergy excess (22RV1 cells) | Synergy region (synergy score) (22RV1 cells)
NC1(C(=O)N[C@@H](CCO)c2ccc(Cl)cc2)CCN(c2nc[nH]c3nccc2-3)CC1 [AZD5363, capivasertib] | 7.1 | 0 | 13 | 6.2 | 2 | 16 | 0 | 26 | 9.4 | 8.1 | – | – | – | – | –
C[C@@H](Nc1cc(F)cc(F)c1)c1cc(C(=O)N(C)C)cc2c(=O)cc(N3CCOCC3)oc12 [AZD8186] | 2.1 | 0 | 11 | 2.9 | 0.39 | 10 | 0 | 12 | 4.4 | 1.5 | 7.6 | 0 | 24 | 2.4 | 1.6
CC(C)NC[C@@H](C(=O)N1CCN(c2ncnc3c2[C@H](C)C[C@H]3O)CC1)c1ccc(Cl)cc1 [GDC-0068, ipatasertib] | 7.5 | 0 | 14 | 3.8 | 1.5 | 13 | 0 | 23 | 7.6 | 5.6 | 7.5 | 0 | 23 | 2.4 | 2.1
N#CC[C@H](C1CCCC1)n1cc(-c2ncnc3[nH]ccc23)cn1 [Ruxolitinib, ruxolitinib] | 5.2 | 0 | – | – | – | – | – | – | – | – | – | – | – | – | –
CNC(=O)c1cc(Oc2ccc(NC(=O)Nc3ccc(Cl)c(C(F)(F)F)c3)cc2)ccn1 [Sorafenib, sorafenib] | – | – | – | – | – | – | – | – | – | – | 2.6 | 0 | 20 | – | 0.65
CCN(c1cc(-c2ccc(CN3CCOCC3)cc2)cc(C(=O)NCc2c(C)cc(C)[nH]c2=O)c1C)C1CCOCC1 [Tazemetostat, tazemetostat] | – | – | – | – | – | 6.1 | 0 | 20 | 5.3 | 4.1 | – | – | – | – | –
